Earlier results on one compound are cited in patent publication US6372198B1, “Dentifrice for the mineralization and remineralization of teeth” (priority 2000, dated 2002).

The structures appear in SMILES notation.

This data set concerns periodontal disease. Conditions: oral administration (pills, capsules, powders); certain clinical studies.

On to `COC1=C(OC)C(=O)C(C/C=C(\C)CC/C=C(\C)CC/C=C(\C)CC/C=C(\C)CC/C=C(\C)CC/C=C(\C)CC/C=C(\C)CC/C=C(\C)CC/C=C(\C)CCC=C(C)C)=C(C)C1=O` [coenzyme Q10], for which the “symptoms of periodontal disease, including inflammation, swelling, and bleeding of the gum tissues” value is given as “alleviated the symptoms of periodontal disease”.
